Laboratory results: patent US20120004281A1, “RNA Interference Mediated Inhibition of the Nerve Growth Factor Beta Chain (NGFB) Gene Expression Using Short Interfering Nucleic Acid (siNA)” (Merck Sharp & Dohme Corp, priority 2009, published 2012)
[invAb] = inverted abasic unit; m = 2'-O-methyl; r = 2'-OH (RNA); f = 2'-fluoro

Test system: NGFβ mRNA
Experiment: NGFβ mRNA knock-down in Calu-1 cells (RNAiMax transfection, Taqman RT-PCR)
Type: cell-based, human
Details: human Calu-1 cells, 10 nM siNA, 24 hrs post-transfection, relative to non-targeting control, normalized to GAPDH
Description: Calu-1 (human; ATCC cat# HTB-54): Cells were cultured at 37° C. in the presence of 5% CO2 and grown in McCoy's 5a medium supplemented with fetal bovine serum at a final concentration of 10% and 100 μg/mL of streptomycin and 100 U/mL penicillin.
All transfections were performed using RNAiMax (Invitrogen Cat# 13778-150) as per the manufacturer's instructions.
Cells were plated in all wells of a tissue-culture treated, 96-well plate at a final count of 5,000 cells/well in […], of appropriate culture media. Cells were cultured for 24 hours after plating at 37° C. in the presence of 5% CO2.
After 24 hours, complexes containing siNA and RNAiMax were created as follows: A solution of RNAiMax diluted 33-fold in OPTI-MEM was prepared. In parallel, solutions of the siNAs for testing were prepared to a final concentration of 120 nM in OPTI-MEM. After incubation of RNAiMax/OPTI-MEM solution at room temperature for 5 min, an equal volume of the siRNA solution and the RNAiMax solution were added together for each of the siNAs.
This solution was incubated at room temperature for 20 minutes. After incubation, 20 uL of the solution was added to each of the relevant wells.
The final concentration of siNA in each well was 10 nM and the final volume of RNAiMax in each well was 0.3u1.
The time of incubation with the RNAiMax-siNA complexes was 24 hours, unless otherwise indicated. There was no change in media between the transfection and harvesting of the cells unless otherwise indicated.
Dose response curves were carried out in a similar fashion in 96-well plates, while maintaining a constant amount of RNAiMax in each transfection.
RNA was extracted from a 96-well plate using the TaqMan® Gene Expression Cells-to-CT™ Kit (Cat# 4399002) with a modified protocol. Briefly, a 60 uL (1 plate) or 110 uL (2 plates) of the Lysis Solution with DNase I was dispensed into each well of the Lysis Buffer Plate (twin.tec full skirt plate). The lysis buffer and stop plates were stored at 4° C. until the cells were washed.
The plate was spun at 1100 rpm for 5 minutes. The culture medium was aspirated and discarded from the wells of the culture plate. The lysis was performed automatically using a BioMek FX instrument and method. After the Biomek method was completed, the lysis plate was incubated for 2 min. at room temperature. The lysis plate can be stored for 2 hours at 4° C., or at −20° C. or −80° C. for two months.
Each well of the reverse transcription plate required 10 uL of 2× reverse transcriptase Buffer, luL of 20× reverse transcription enzyme and 2 uL of nuclease-free water. The reverse transcription master mix was prepared by mixing 2× reverse transcription buffer, 20× reverse transcription enzyme mix, and nuclease-free water. 13 uL of the reverse transcription master mix was dispensed into each well of the reverse transcription plate (semi-skirted). A separate reverse transcription plate was prepared for each cell plate. The plate was loaded onto a Biomek NX or Biomek FX Dual-96 and the Biomek method was run. The program is programmed to automatically added 7 uL of lysate from the cell lysis procedure described above into each well of the reverse transcription plate. The plate is sealed and spun on a centrifuge (1000 rpm for 30 seconds) to settle the contents to the bottom of the reverse transcription plate. The plate is placed in a thermocycler at 37° C. for 60 min, 95° C. for 5 min, and 4° C. until the plate is removed from the thermocycler. Upon removal, if not used immediately, the plate was frozen at −20° C.
A series of probes and primers were used to detect the various mRNA transcripts of the genes of NGFβ, BDNF and GAPDH in human cell lines. All the Taqman probes and primers for the experiments here-in described were supplied as pre-validated sets by Applied Biosystems, Inc. (see Table 3). The assays were performed on an ABI 7900 instrument, according to the manufacturer's instructions. […]

25414-DC: siNA duplex, NGFβ target site 615; sense B ccAcAGAcAucAAGGGcAA TTB (SEQ ID NO: 53), antisense UUGcccuuGAuGucuGuGGUU (SEQ ID NO: 54) (sense CCACAGACAUCAAGGGCAATT; antisense UUGCCCUUGAUGUCUGUGGUU; sense: DNA at AGT, 2'-fluoro at CU, [invAb] at 5' end, 3' end, backbone not given here; antisense: sugars from the 5' end rrrfffffmmfmfffmfmmmm, backbone not given here)
% KD in CaLu-1 Cells: 61%

25428-DC: siNA duplex, NGFβ target site 677; sense B uucAAAcAGuAcuuuuuuG TTB (SEQ ID NO: 81), antisense CAAAAAAGuAcuGuuuGAAUU (SEQ ID NO: 82) (sense UUCAAACAGUACUUUUUUGTT; antisense CAAAAAAGUACUGUUUGAAUU; sense: DNA at AGT, 2'-fluoro at CU, [invAb] at 5' end, 3' end, backbone not given here; antisense: sugars from the 5' end rrrmmmmmfmffmfffmmmmm, backbone not given here)
% KD in CaLu-1 Cells: 57%

25411-DC: siNA duplex, NGFβ target site 101; sense B uccGGAcccAAuAAcAGuu TTB (SEQ ID NO: 47), antisense AACuGuuAuuGGGuccGGAUU (SEQ ID NO: 48) (sense UCCGGACCCAAUAACAGUUTT; antisense AACUGUUAUUGGGUCCGGAUU; sense: DNA at AGT, 2'-fluoro at CU, [invAb] at 5' end, 3' end, backbone not given here; antisense: sugars from the 5' end rrrfmffmffmmmfffmmmmm, backbone not given here)
% KD in CaLu-1 Cells: 54%

25405-DC: siNA duplex, NGFβ target site 124; sense B cAAGGGAGcAGcuuucuAu TTB (SEQ ID NO: 35), antisense AUAGAAAGcuGcucccuuGUU (SEQ ID NO: 36) (sense CAAGGGAGCAGCUUUCUAUTT; antisense AUAGAAAGCUGCUCCCUUGUU; sense: DNA at AGT, 2'-fluoro at CU, [invAb] at 5' end, 3' end, backbone not given here; antisense: sugars from the 5' end rrrmmmmmffmfffffffmmm, backbone not given here)
% KD in CaLu-1 Cells: 31%

25403-DC: siNA duplex, NGFβ target site 958; sense B ccuGuAAAuuAuuuuAAAu TTB (SEQ ID NO: 31), antisense AUUuAAAAuAAuuuAcAGGUU (SEQ ID NO: 32) (sense CCUGUAAAUUAUUUUAAAUTT; antisense AUUUAAAAUAAUUUACAGGUU; sense: DNA at AGT, 2'-fluoro at CU, [invAb] at 5' end, 3' end, backbone not given here; antisense: sugars from the 5' end rrrfmmmmfmmfffmfmmmmm, backbone not given here)
% KD in CaLu-1 Cells: 60%

25406-DC: siNA duplex, NGFβ target site 755; sense B cAcuGGAAcucAuAuuGuA TTB (SEQ ID NO: 37), antisense UACAAuAuGAGuuccAGuGUU (SEQ ID NO: 38) (sense CACUGGAACUCAUAUUGUATT; antisense UACAAUAUGAGUUCCAGUGUU; sense: DNA at AGT, 2'-fluoro at CU, [invAb] at 5' end, 3' end, backbone not given here; antisense: sugars from the 5' end rrrmmfmfmmmffffmmfmmm, backbone not given here)
% KD in CaLu-1 Cells: 34%

25419-DC: siNA duplex, NGFβ target site 648; sense B uGGGAGAGGuGAAcAuuAA TTB (SEQ ID NO: 63), antisense UUAAuGuucAccucucccAUU (SEQ ID NO: 64) (sense UGGGAGAGGUGAACAUUAATT; antisense UUAAUGUUCACCUCUCCCAUU; sense: DNA at AGT, 2'-fluoro at CU, [invAb] at 5' end, 3' end, backbone not given here; antisense: sugars from the 5' end rrrmfmfffmffffffffmmm, backbone not given here)
% KD in CaLu-1 Cells: 25%

25421-DC: siNA duplex, NGFβ target site 675; sense B uAuucAAAcAGuAcuuuuu TTB (SEQ ID NO: 67), antisense AAAAAGuAcUGuuuGAAuAUU (SEQ ID NO: 68) (sense UAUUCAAACAGUACUUUUUTT; antisense AAAAAGUACUGUUUGAAUAUU; sense: DNA at AGT, 2'-fluoro at CU, [invAb] at 5' end, 3' end, backbone not given here; antisense: sugars from the 5' end rrrmmmfmfmmfffmmmfmmm, backbone not given here)
% KD in CaLu-1 Cells: 56%

25415-DC: siNA duplex, NGFβ target site 609; sense B ccAccGccAcAGAcAucAA TTB (SEQ ID NO: 55), antisense UUGAuGucuGuGGcGGuGGUU (SEQ ID NO: 56) (sense CCACCGCCACAGACAUCAATT; antisense UUGAUGUCUGUGGCGGUGGUU; sense: DNA at AGT, 2'-fluoro at CU, [invAb] at 5' end, 3' end, backbone not given here; antisense: sugars from the 5' end rrrmfmfffmfmmfmmfmmmm, backbone not given here)
% KD in CaLu-1 Cells: 61%

25404-DC: siNA duplex, NGFβ target site 43; sense B cAGuGGucGuGcAGuccAA TTB (SEQ ID NO: 33), antisense UUGGAcuGcAcGAccAcuGUU (SEQ ID NO: 34) (sense CAGUGGUCGUGCAGUCCAATT; antisense UUGGACUGCACGACCACUGUU; sense: DNA at AGT, 2'-fluoro at CU, [invAb] at 5' end, 3' end, backbone not given here; antisense: sugars from the 5' end rrrmmffmfmfmmffmffmmm, backbone not given here)
% KD in CaLu-1 Cells: 33%
